The target in series [1] is T1, ENT1 (Homo sapiens, UniProt Q99808).
T1 construct: expressed in transfected cells
T1 sequence (Q99808 1-456): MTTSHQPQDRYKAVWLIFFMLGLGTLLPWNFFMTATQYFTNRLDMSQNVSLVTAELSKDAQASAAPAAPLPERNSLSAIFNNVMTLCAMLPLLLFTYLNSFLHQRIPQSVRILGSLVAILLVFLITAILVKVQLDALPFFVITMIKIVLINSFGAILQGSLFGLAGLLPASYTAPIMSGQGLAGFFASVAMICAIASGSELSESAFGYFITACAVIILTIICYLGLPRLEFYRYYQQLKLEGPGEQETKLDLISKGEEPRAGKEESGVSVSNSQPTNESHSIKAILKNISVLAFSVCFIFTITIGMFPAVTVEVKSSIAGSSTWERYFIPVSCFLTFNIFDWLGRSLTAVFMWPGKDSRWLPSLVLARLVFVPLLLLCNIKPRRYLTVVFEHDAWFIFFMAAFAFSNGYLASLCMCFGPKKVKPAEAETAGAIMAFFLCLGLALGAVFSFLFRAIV
Briefly: [3H]uridine uptake in PK15NTD/ENT1 cells. It is filed as cell-based. Particulars: [3H]uridine 1 μM, 1 min, PK15NTD/ENT1 cells; read-out: IC50 against ENT1. The protocol:
Nucleoside transporter-deficient porcine kidney fibroblast cells (PK15NTD) stably transfected with cloned human ENT1 or ENT2 ([Ward et al., 2000]) were used as the in vitro models. The cells were cultured in Dulbecco’s Modified Eagle’s Medium (DMEM) supplemented with 10% (v/v) foetal bovine serum, 0.5 mg/ml geneticin, 100 units/ml penicillin, 100 μg/ml streptomycin and 0.25 μg/ml of amphotericin B at 37°C in 5% CO2/95% air.
Confluent monolayers of PK15NTD/ENT1 and PK15NTD/ENT2 cells in 24-well plates were washed thrice with HEPES-buffered Ringer’s solution containing (mM): 135 NaCl, 10 glucose, 5 KCl, 5 HEPES, 3.33 NaH2PO4, 1.0 CaCl2, 1.0 MgCl2, 0.83 Na2HPO4; pH 7.4. The cells were incubated with different concentrations of FPMINT analogues (from 10 nM to 100 μM) containing [^3H]uridine (2 μCi/ml, 1 μM) for 1 min. Passive uridine uptake was determined by incubating the cells in HEPES-buffered Ringer’s solution containing [^3H]uridine in the presence of 0.5 mM NBMPR. The cells were rapidly washed five times with ice-cold phosphate-buffered saline (PBS). After air-drying, the cells were solubilised by overnight incubation in 500 μl of 5% Triton-X100. Next, 300 μl of the cell lysates were mixed with 2 ml of scintillation liquid. The radioactivity of each sample was quantified by a scintillation counter. The protein content in each well was determined spectrophotometrically using a commercial bicinchoninic acid assay (Pierce Biochemicals, Rockford, IL). Uptake values were expressed as picomoles of [^3H]uridine per milligram of cellular protein per minute.
All data were analysed by GraphPad Prism software (San Diego, CA, United States). Data are expressed as mean ± standard error (SE) of three experiments performed in triplicate. The IC50 values were determined from the dose-response curves fitted with a logistic function. For the kinetic study of [^3H]uridine uptake, apparent K m and V max values were determined from the Michaelis-Menten equation, and K i was determined from the X-intercept of linear regression. Analysis of variance and Student’s t-test were performed for multiple and paired variables, respectively. p values of <0.05 were considered to be statistically significant.

For series [2], the system named is PK15NTD/ENT1 cells. Briefly: Cell viability, MTT assay. It is filed as cell-based, porcine. The conditions noted are these: 50 µM, 24 or 48 h. The protocol: (§1) PK15NTD/ENT1 and PK15NTD/ENT2 cells were seeded onto 96-well plates until they reached 80–90% confluent. The cells were then treated with different concentrations of compound 3c or an equivalent volume of a vehicle (0.5% dimethyl sulfoxide (DMSO), as a control) in a serum-free medium for another 24 or 48 h. For measuring cell membrane integrity, the lactate dehydrogenase (LDH) released into the culture medium was measured with a detection kit (Abcam, Cambridge, UK) according to the manufacturer’s instructions. The absorbance at 490 nm was measured with a microplate absorbance reader. For measuring cell viability, 0.5 mg/ml methylthiazolyldiphenyl-tetrazolium bromide (MTT) was added to each well. […] The absorbance was measured at 560 nm, with the absorbance at 655 nm serving as the background.
(§2) FIGURE 5 Effects of compound 3c on cytotoxicity and protein expressions of ENT1 and ENT2. Cytotoxicity of compound 3c was measured after 24 h or 48 h treatment of PK15NTD/ENT1 and PK15NTD/ENT2 cells with various concentrations of compound 3c (0.5, 5 and 50 μM) or a vehicle (0.5% DMSO, as a control) (A) The cell viability and (B) cell membrane integrity were determined by the MTT assay and LDH release, respectively (C) PK15NTD/ENT1 and (D) PK15NTD/ENT2 cells were incubated with 50 μM of compound 3c or a vehicle (0.5% DMSO, as a control) for 24 or 48 h. […]
(In general: Formazan colour is commonly taken as a measure of viable cells.)

The subject of series [3] is PK15NTD/ENT2 cells. Kind of series: Cell viability, MTT assay. Type of series: cell-based, porcine. Particulars: 50 µM, 24 or 48 h. The procedure: as §1, §2

On to `Cc1cccc(Nc2nc(N)nc(CN3CCN(c4ccc(F)cc4)CC3)n2)c1` [Compound 3c], for which the IC50 (usually the midpoint of a concentration-inhibition curve) in series [1] was 2380 nM. Moreover, the cell viability entry in series [2] and in series [3] was “No significant changes” each time.
